Results reported in patent US6822146B2, “Sulfonylurea-tolerant sunflower line M7” (priority 2000, dated 2004).

Tests used:
[1] = system: Orobanche cumana (Race F); experiment: Test F sequential application to control Orobanche cumana; format: in vivo
Description: A greenhouse experiment was performed to identify the best sequential program compared to straight application of tribenuron-methyl or metsulfuron-methyl for control of Orobanche cumana (Race F). The dose range for optimum efficacy was also studied. Both herbicides were used as formulated compositions. […] BC4-M5M7×PHA155 is referred to below as “Hybrid 7”, and BC4-M5M12×PHA155 is referred to below as “Hybrid 12”.
Seed coating treatment was performed as described for Test D. Post-emergence treatments were applied at the 2-4 leaf stage of sunflower (corresponding to early stage of Orobanche attachment; identified as “T1”), the 6 leaf stage of sunflower (corresponding to the mid stage of Orobanche attachment; nodules <5 mm diameter; identified as “T2”) and 8 leaf stage of sunflower (corresponding to late stage of Orobanche attachment; identified as “T3”).
The efficacy was evaluated visually as described for Test D except that the efficacy was assessed ten days later than for Tests D and E. The later evaluation allowed observing any reduction of efficacy due to late Orobanche emergence or re-growth of treated nodules. Efficacy in controlling Orobanche attached to roots was evidenced by nodules comprising black necrotic tissues with no apparent active meristematic area. These nodules could be easily crushed between fingers.

[2] = system: heterozygous resistant hybrids (C to H); conditions: in vivo
Description: In a small field trial, the sunflower varieties described in Table 4 were sprayed post-emergence with a variety of sulfonylurea herbicide treatments.
Broadcast post-emergence applications of formulated sulfonylurea herbicides were performed at the 6-leaf development stage using four randomly distributed replications. Application rates were chosen to match the usual use rates of these herbicides in the crops they are registered in Europe. All herbicides except for metsulfuron-methyl were sprayed in combination with Citowet® non-ionic ethoxylated alcohol at 0.25% volume of formulated product per volume of water applied per hectare.
The evaluation of the maximum (i.e. peak) injury to sunflower varieties by sulfonylurea herbicides was measured by visual ratings, which are listed in Table 5. A rating of 0% phytotoxicity means no crop injury. […] A rating of 100% means the complete destruction of all plants.

Orobanche cumana = experiment: Test D control of Orobanche cumana in resistant sunflower; format: in vivo
Description: The purpose of this test was to evaluate the efficacy of tribenuron-methyl to control Orobanche cumana before and after crop emergence from the soil. Various herbicide treatments were evaluated using six replications of each treatment. Treatments investigated the following modes of application: seed coating, pre-emergence soil incorporation, bare-ground pre-emergence broadcast application, and post-emergence broadcast application. All herbicide treatments used formulated herbicide compositions.
For seed coating treatments, 3 mg of Orobanche cumana seeds were added to each pot containing a growing mixture of 60% dry loamy soil, 20% sand and 20% of peat, the growing mixture having an organic matter content of 4.2% and a pH of 8.05. The pots were placed in plastic trays and watered to the extent of 25% of soil weight. Pots were kept in a greenhouse for 8 to 10 days at about 24° C. during the day and 20° C. at night. Eight seeds of BC4-M5M12 sunflower resistant mutant were sown manually in the pots contaminated with Orobanche, at the end of the incubation period of the parasitic weed seeds.
Seeds were first coated using a table-top laboratory fluid bed equipped with a coating device (“Strea 1 Aerocoater” made by Niro Aeromatic, Haupstrasse 145, CH-4416 Bubendorf, Switzerland) and a coating solution containing about 23% Sepiret 8330® (coating composition sold by Seppic, 75 quai d'Orsay Paris 75321 cedex 07 France) and 77% water at the rate of 3 L/100 Kg of seeds. After coating, the seeds were dried in a fluid bed drier at 35° C. […] The coated seeds were then dried at ambient temperature and stored until sowing.
The soil was then thoroughly mixed by hand and dispensed into the pots. The quantities of tribenuron-methyl used in these treatments are expressed in g a.i./ha based on the soil volume and pot dimensions. The quantities applied were 11.25 and 22.5 g a.i./ha.
The effect of the various treatments was evaluated 35 days after sowing. The sunflower roots were cleaned by washing in water, and the presence of Orobanche nodules was determined visually and by weighing root wet mass in comparison to check plants free of Orobanche infestation. […] The nodules caused by Orobanche increased root weight, and a correlation (r=0.7) was found between visual scores and weight measurements. Thus the weighing technique could be used to corroborate visual efficacy scorings. Orobanche emergence was also scored but found to be less useful to evaluate treatment efficiency at the evaluation timing of this test.

M5M7 = experiment: Test B greenhouse phytotoxicity, M5M7; format: in vivo, sunflower; conditions: in vivo
Method in brief: (§1)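 Formulated ALS-inhibiting herbicides sprayed post-emergence at the 4-leaf stage on homozygous mutant sunflower inbreds (M5 maintainers and BC4 male-sterile back-crosses) in the greenhouse, at rates commonly used in registered crops. Two replicates; crop injury rated as % phytotoxicity, 0% meaning no injury.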

[3] = system: homozygous progeny of the three mutant sources; format: in vivo, sunflower; conditions: Test B application rates, post-emergence
Method in brief: as §1

BC4-M5M12 × PHA155 = experiment: Test C field phytotoxicity, BC4-M5M12 × PHA155; format: in vivo, sunflower
From the text: (§2) A rating of 0% phytotoxicity means no crop injury.

BC4-M5M7 × PHA155 = experiment: Test C field phytotoxicity, BC4-M5M7 × PHA155; format: in vivo, sunflower
From the text: as §2

[4] = post-emergence T1 3 + T3 3 g a.i./ha
[5] = post-emergence T1 11.25 + T3 11.25 g a.i./ha
[6] = post-emergence T1 22.5 g a.i./ha
[7] = post-emergence T2 11.25 g a.i./ha
[8] = post-emergence T2 22.5 g a.i./ha
[9] = post-emergence T3 11.25 g a.i./ha
[10] = post-emergence T3 22.5 g a.i./ha
[11] = seed coating 11.25 + post-emergence T2 11.25 g a.i./ha
[12] = seed coating 11.25 + post-emergence T3 11.25 g a.i./ha
[13] = postemergence 7.5 g a.i./ha, 7 DAT
[14] = postemergence 7.5 g a.i./ha, 15 DAT
[15] = postemergence 7.5 g a.i./ha, 30 DAT
[16] = postemergence 15 g a.i./ha, 7 DAT
[17] = postemergence 15 g a.i./ha, 15 DAT
[18] = postemergence 15 g a.i./ha, 30 DAT

## COC(=O)c1ccccc1S(=O)(=O)NC(=O)Nc1nc(C)nc(OC)n1 [Metsulfuron-methyl, metsulfuron-methyl]
[1]; [4]
  % Control in Hybrid 7: 92%
  % Control in Hybrid 12: 90%
[1]; post-emergence T1 3 g a.i./ha
  % Control in Hybrid 7: 65%
  % Control in Hybrid 12: 63%
[1]; post-emergence T3 3 g a.i./ha
  % Control in Hybrid 7: 93%
  % Control in Hybrid 12: 95%
[1]; single late post-emergence treatment with 3 g a.i./ha
  control of Orobanche: excellent control
[2]
  tolerance of heterozygous resistant hybrids C to H: as tolerant as the three homozygous resistant lines

## COC(=O)c1ccccc1S(=O)(=O)NC(=O)N(C)c1nc(C)nc(OC)n1 [Tribenuron-methyl, tribenuron-methyl]
Orobanche cumana; post-emergence broadcast spray 2.25 g a.i./ha
  Control: 63%
Orobanche cumana; pre-emergence broadcast spray 11.25 g a.i./ha + post-emergence broadcast spray 11.25 g a.i./ha
  Control: 78%
Orobanche cumana; pre-emergence broadcast spray 22.5 g a.i./ha
  Control: 40%
Orobanche cumana; pre-emergence soil incorporation 11.25 g a.i./ha
  Control: 55%
Orobanche cumana; pre-emergence soil incorporation 22.5 g a.i./ha
  Control: 72%
Orobanche cumana; seed coating 0.00001 mg a.i./g + post-emergence broadcast spray 2.25 g a.i./ha
  Control: 63%
Orobanche cumana; seed coating 0.00001 mg a.i./g + post-emergence broadcast spray 11.25 g a.i./ha
  Control: 70%
Orobanche cumana; seed coating 0.00001 mg a.i./g, host BC4-M5M12, 35 days after sowing
  Control: 8%
Orobanche cumana; seed coating 0.1 mg a.i./g + post-emergence broadcast spray 2.25 g a.i./ha
  Control: 85%
Orobanche cumana; seed coating 0.1 mg a.i./g + post-emergence broadcast spray 11.25 g a.i./ha
  Control: 80%
Orobanche cumana; seed coating 0.1 mg a.i./g, host BC4-M5M12, 35 days after sowing
  Control: 37%
Orobanche cumana; seed coating 10 mg a.i./g + post-emergence broadcast spray 2.25 g a.i./ha
  Control: 82%
Orobanche cumana; seed coating 10 mg a.i./g + post-emergence broadcast spray 11.25 g a.i./ha
  Control: 89%
M5M7
  Maximum Phytotoxicity: 12.5%
[1]; greenhouse test, Hybrid 7 and Hybrid 12
  rate needed for good control of Orobanche: 22.5 g a.i./ha
[1]; [5]
  % Control in Hybrid 7: 85%
  % Control in Hybrid 12: 85%
[1]; [6]
  % Control in Hybrid 7: 72%
  % Control in Hybrid 12: 73%
[1]; [7]
  % Control in Hybrid 7: 77%
  % Control in Hybrid 12: 73%
[1]; [8]
  % Control in Hybrid 7: 82%
  % Control in Hybrid 12: 83%
[1]; [9]
  % Control in Hybrid 7: 78%
  % Control in Hybrid 12: 80%
[1]; [10]
  % Control in Hybrid 7: 87%
  % Control in Hybrid 12: 87%
[1]; [11]
  % Control in Hybrid 7: 77%
  % Control in Hybrid 12: 78%
[1]; [12]
  % Control in Hybrid 7: 82%
  % Control in Hybrid 12: 83%
[3]
  tolerance of the mutants: good tolerance
[2]
  tolerance of heterozygous resistant hybrids C to H: as tolerant as the three homozygous resistant lines
BC4-M5M12 × PHA155; postemergence 11.25 g a.i./ha, 15 DAT
  Phytotoxicity Rating After Treatment: 18%

## COC(=O)c1cccc(C)c1S(=O)(=O)NC(=O)Nc1nc(OCC(F)(F)F)nc(N(C)C)n1 [Triflusulfuron-methyl, triflusulfuron-methyl]
BC4-M5M7 × PHA155; [13]
  Phytotoxicity Rating After Treatment: 38%
BC4-M5M7 × PHA155; [14]
  Phytotoxicity Rating After Treatment: 40%
BC4-M5M7 × PHA155; [15]
  Phytotoxicity Rating After Treatment: 28%
BC4-M5M7 × PHA155; [16]
  Phytotoxicity Rating After Treatment: 57%
BC4-M5M7 × PHA155; [17]
  Phytotoxicity Rating After Treatment: 53%
BC4-M5M7 × PHA155; [18]
  Phytotoxicity Rating After Treatment: 40%
BC4-M5M12 × PHA155; [13]
  Phytotoxicity Rating After Treatment: 22%
BC4-M5M12 × PHA155; [14]
  Phytotoxicity Rating After Treatment: 22%
BC4-M5M12 × PHA155; [15]
  Phytotoxicity Rating After Treatment: 25%
BC4-M5M12 × PHA155; [16]
  Phytotoxicity Rating After Treatment: 38%
BC4-M5M12 × PHA155; [17]
  Phytotoxicity Rating After Treatment: 45%
BC4-M5M12 × PHA155; [18]
  Phytotoxicity Rating After Treatment: 43%
